Data taken from US20060069132A1, “Azolecarboxamide herbicides” (priority 2004, published 2006).

Experiments:
common ragweed = test: Test C pre-/postemergence herbicide test; type: in vivo, Ambrosia elatior; design: key to Plant response rating, Ragweed: 0 = no effect, 100 = complete control
Summary of the method: (§1)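 Pre/post spray; non-phytotoxic solvent + surfactant. Post-timing 1–4 leaves, 2–18 cm. Read-out: visual % control vs untreated, day 12–14, greenhouse.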

kochia = test: Test C pre-/postemergence herbicide test; type: in vivo, Kochia scoparia
Summary of the method: as §1

barnyardgrass = test: Test C flooded paddy test; type: in vivo, Echinochloa crus-galli
Summary of the method: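 Postemergence sprays were applied to plants 2 to 18 cm tall (1- to 4-leaf stage); in the flooded paddy test, barnyardgrass was grown to the 2-leaf stage. After 12 to 14 days in a greenhouse, injury was visually rated against untreated controls on a 0–100 scale (100 = complete control).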

pigweed = test: Test C pre-/postemergence herbicide test; type: in vivo, Amaranthus retroflexus
Summary of the method: as §1

large crabgrass = test: Test C pre-/postemergence herbicide test; type: in vivo, Digitaria sanguinalis; settings: for Plant response rating, Crabgrass, Large: visual, 12 to 14 days
Summary of the method: as §1

rice = test: Test B pre-/postemergence herbicide test; type: in vivo, Oryza sativa; settings: preemergence, 125 g ai/ha; 0 to 100 scale, 0 is no effect, 100 is complete control
Summary of the method: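 Plants compared with untreated controls 13–15 days post-treatment and given a visual 0–100 injury score. Applications: preemergence to seeds; postemergence at 1- to 4-leaf (2–18 cm); paddy species flooded, 2-leaf stage. Vehicle non-phytotoxic, surfactant included.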

giant foxtail = test: Test A pre-/postemergence herbicide test; type: in vivo, Setaria faberi
Summary of the method: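 Greenhouse injury scoring (0–100, complete control = 100) at approximately ten days follows simultaneous pre- and postemergence application. Soil received a directed spray after seeding; seedlings of 2–10 cm at the one- to two-leaf stage were sprayed to runoff.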

goosegrass = test: Test C pre-/postemergence herbicide test; type: in vivo, Eleusine indica
Summary of the method: as §1

velvetleaf = test: Test C pre-/postemergence herbicide test; type: in vivo, Abutilon theophrasti
Summary of the method: as §1

[1] = 125 g ai/ha, scale 0 (no effect) to 100 (complete control), visual, 12 to 14 days, preemergence
[2] = Preemergence, 500 g ai/ha, scale 0 to 100, 0 no effect, 100 complete control

CCOC(=O)c1cccc(NC(=O)c2cc(C(C)(C)C)nn2CC)c1C [Compound 88]
Plant response rating (0 = no effect, 100 = complete control), Ragweed (common ragweed; 62 g ai/ha, preemergence): 0
Plant response rating, Ragweed (common ragweed; [1]): 0
Ragweed plant response rating (common ragweed; [2]): 20
Plant response rating (0 = no effect, 100 = complete control), Kochia (kochia; 62 g ai/ha, preemergence): 0
Plant response rating, Kochia (kochia; [1]): 85
Kochia plant response rating (kochia; [2]): 100
Barnyardgrass plant response rating (barnyardgrass; 62 g ai/ha, scale 0 to 100 (0 no effect, 100 complete control)): 0
Barnyardgrass plant response rating (barnyardgrass; 125 g ai/ha, scale of 0 to 100, 0 is no effect, 100 is complete control): 0
Barnyardgrass plant response rating (barnyardgrass; 250 g ai/ha, scale of 0 to 100, 0 is no effect, 100 is complete control): 15
Plant response rating, Barnyardgrass (barnyardgrass; 500 g ai/ha, visual rating after 12 to 14 days, scale 0 to 100 (0 no effect, 100 complete control)): 45
Plant response rating (0 = no effect, 100 = complete control), Pigweed (pigweed; 62 g ai/ha, preemergence): 100
Plant response rating, Pigweed (pigweed; [1]): 100
Pigweed plant response rating (pigweed; [2]): 100
Plant response rating (0 = no effect, 100 = complete control), Crabgrass, Large (large crabgrass; 62 g ai/ha, preemergence): 90
Plant response rating, Crabgrass, Large (large crabgrass; 125 g ai/ha, scale 0 (no effect) to 100 (complete control), preemergence): 95
Plant response rating, Crabgrass, Large (large crabgrass; 250 g ai/ha, scale 0 to 100 (0 no effect, 100 complete control), preemergence): 95
Crabgrass, Large plant response rating (large crabgrass; [2]): 100
Plant response rating, Rice (rice): 20
Foxtail, Giant plant response rating (giant foxtail; Postemergence, 500 g ai/ha, 0 to 100 scale, 0 no effect, 100 complete control): 20
Plant response rating, Foxtail, Giant (giant foxtail; Postemergence, 2000 g ai/ha, 0 to 100 scale, 0 no effect, 100 complete control): 60
Foxtail, Giant plant response rating (giant foxtail; Preemergence, 500 g ai/ha, visual rating, 0 to 100 scale (0 no effect, 100 complete control)): 55
Foxtail, Giant plant response rating (giant foxtail; Preemergence, 2000 g ai/ha, 0 to 100 scale, 0 no effect, 100 complete control): 90
Plant response rating (0 = no effect, 100 = complete control), Goosegrass (goosegrass; 62 g ai/ha, preemergence): 60
Plant response rating, Goosegrass (goosegrass; [1]): 90
Goosegrass plant response rating (goosegrass; [2]): 100
Plant response rating, Velvetleaf (velvetleaf; [1]): 0
Velvetleaf plant response rating (velvetleaf; [2]): 50
